In test [1] the test system is ERK. Briefly: ERK activity assay with ERK-nKTR-GFP biosensor in MV3 cells. It counts as cell-based, human. The procedure:
(§1) Detached/Adhered Cell Culture. […] Drug treatments, solvent-only controls, or CellEvent caspase activity sensor were added to suspensions if appropriate to the experiment, and then immediately transferred to both an uncoated (for detached cells) and ibiTreated (for adhered cells) 8-well ibidi u-slide (ibidi cat #80821 and 80826) at 200 μl/well. Both slides were stored at 37° C. and 5% CO2 for either 24 hours (hrs) for viability assays, 3 hrs for ERK activity assays or 4 hours for caspase activation assays. Uncoated slides (detached) were nutated at 20 rpm during this time. […]
(§2) Viability, ERK Activity, and Caspase ActivityCell Counting Assays. Viability, ERK activity, and caspase activity assays were analyzed using live-cell fluorescent and phase-contrast microscopy, performed on a Nikon Ti microscope equipped with an environmental chamber held at 37° C. and 5% CO2 at 20× magnification. […] Live and dead cells (as identified by significant cellular ethidium signal) were counted using the Cell Counter ImageJ plugin. For ERK activity assays, live cells carrying ERK-nKTR-GFP and H2B-mCherry were imaged after 3 hours of experimental conditions and high/low ERK activity cells were counted with Cell Counter ImageJ plugin. […] Caspase positive and negative cells (as identified by significant cellular CellEvent signal) were counted using the Cell Counter ImageJ plugin.

Test [2] relates to septin structures in MV3 melanoma xenografts. Briefly: Septin foci at invasive front of MV3 SEPT6-GFP xenograft tumors (ctASLM). The class given is in vivo, NOD SCID mice. The conditions noted are these: mice with MV3 SEPT6-GFP tumors, FCF via oral gavage. From the text:
NOD SCID mice were flank-injected with SEPT6-GFP-expressing MV3 melanoma cells to form xenograft tumors. Once tumors were palpable at injection sites they were dissected out with surrounding stroma, fixed, cleared, and imaged via cleared tissue axially-scanned lightsheet microscopy (ctASLM) to observe and quantify bleb formation and septin structure formation. As shown in FIG. 18A and FIG. 18B these in vivo experiments recapitulated in vitro results described previously, showing blebby morphologies with associated punctate septin structures (FIG. 18A). Importantly, this phenotype was exclusively observed at the invasive front of tumors, where cells lose contact to surrounding tissue, and not in the densely packed tumor core (FIG. 18B). These findings agree with previous research showing that blebby amoeboid-like cells are enriched at tumor invasive fronts. […] Furthermore, they support the idea that such bleb-associated septin signaling hubs are relevant in disease progression in human patients.
Specifically, FIG. 20A and FIG. 20B depict graphs illustrating the feasibility of anti-septin therapy in vivo. In triplicate experiments, mice growing tumors formed with SEPT6-GFP expressing MV3 melanoma cells (using the methods described in Example 8 above) were treated with FCF via oral gavage and septin structures were analyzed. […]

The subject of test [3] is MV3 cells. Briefly: Caspase activity assay (CellEvent Caspase-3/7) in MV3 cells. The class given is cell-based, human. The conditions noted are these: detached MV3 cells, 4 h, 10 μg/mL WGA. The procedure: as §1, §2

The record followed here is US20250268980A1, “AN ANTICANCER THERAPY TARGETING RAS AND OTHER ONCOGENIC SIGNALS BY INHIBITION OF DYNAMIC BLEBBING AND/OR SEPTINS” (THE BOARD OF REGENTS OF THE UNIVERSITY OF TEXAS SYSTEM, priority 2022, published 2025).

With `O=C(Nc1ccccc1)Nc1ccnc(Cl)c1` [FCF, forchlorfenuron], the ERK signaling result in test [1] (adhered MV3, 3 hours of FCF) was “no difference in ERK signaling compared to controls”. For the same compound, the ERK activation entry in test [1] (detached MV3, 3 hours of FCF) was “significantly reduced”. In addition, in test [2], the “intensity of septin foci at the invasive front” value is recorded as “dimmer” and the “number of septin foci at the invasive front” value was “significantly fewer”.

Regarding wheat germ agglutinin [WGA], in test [3], the caspase activation entry was “consistent and specific increase of caspase activation”.
